Test results as given in patent US20120053185A1, “METHOD TO TREAT MELANOMA IN BRAF INHIBITOR-RESISTANT SUBJECTS” (CollabRx Inc., priority 2010, published 2012).

Columns and labels:
metastatic melanoma = conditions: patients with the mutation, cited from earlier work
patient's tumor = test: Case report: patient who became resistant to successive therapies (Example 1); format: in vivo, human; conditions: single patient
Protocol: A person had been on multiple lines of therapy, with a response to each, but then becoming resistant. The treatments were as follows:
In July, ipilimumab (a therapy directed at CTLA-4, an inhibitor of the immune system) was started. Sutent® was then administered in addition to the ipilimumab. […] As the patient, however, could not eat, they discontinued the Sutent® and died a few days after this discontinuation.

[1] = Sutent given in addition to ipilimumab, within a few days

SMILES	response rate (metastatic melanoma; one study)	durability of responses (metastatic melanoma)	patient's tumor shrank (patient's tumor; first scan after treatment started January 2010)	result of second scan (patient's tumor; second scan April 2010)	abdomen size (patient's tumor; [1])	bowel movements (patient's tumor; [1])
CCCS(=O)(=O)Nc1ccc(F)c(C(=O)c2c[nH]c3ncc(-c4ccc(Cl)cc4)cc23)c1F [Plexxikon 4032]	70%	generally does not produce durable responses	75%	recurrence	–	–
CCN(CC)CCNC(=O)c1c(C)[nH]c(/C=C2\C(=O)Nc3ccc(F)cc32)c1C [Sutent®, 5-(5-fluoro-2-oxo-1,2-dihydroindo1-3-ylidenemethyl)-2,4-dimethyl-1H-pyrrole-3-carboxylic acid (2-diethylaminoethyl)amide]	–	–	–	–	abdomen shrank to normal size	normal bowel movements resumed
